Assay results: patent US20230372334A1, “USE OF AN ERK INHIBITOR FOR THE TREATMENT OF MYELOFIBROSIS” (Novartis AG, priority 2020, published 2023)
“Also recorded” adds a separate entry of the source.

Assays:
[1] = tested on: ERK downstream targets RSK3 and DUSP6; assay: ERK signaling in splenocytes of Jak2V617F mice by Western blot; assay type: in vivo, mouse; settings: FIG. 2A
[2] = tested on: CD34+ peripheral blood mononuclear cells (PBMCs) of a MF patient; assay: Colony growth from CD34+ PBMCs of a MF patient; assay type: cell-based, human; settings: FIG. 5A
[3] = tested on: Jak2V617F mice; assay: Jak2V617F knock-in mouse model (polycythemia vera phenotype), competitive BM transplant; assay type: in vivo; settings: for reduction of hematocrit: Example 4, FIG. 5B
[4] = tested on: JAK2V617F PV/MF mouse model; assay: JAK2V617F PV/MF mouse model, 14 consecutive days oral dosing (Example 3); settings: ruxolitinib 60 mg/kg BID, Compound A 75 mg/kg QD, 14 days; for body weight change: FIG. 4A; for bone marrow cellularity / bone marrow toxicity: FIG. 4B; for WBC count: FIG. 4C; for platelet count: FIG. 4D; for elevated hematocrit / splenomegaly: vs vehicle; for elevated hematocrit: FIG. 3A; for splenomegaly: FIG. 3B
Text: For treatment studies, bone marrow (BM) from primary Jak2V617F Vav-Cre CD45.2 mice was mixed 1:1 with Jak2 wild-type CD45.1 BM and transplanted into lethally irradiated CD45.1 recipients. Development of the MPN phenotype was confirmed by peripheral blood counts 2 months after BM transplantation. Mice were randomized to treatment groups according to blood counts and treated by oral gavage for 1-4 weeks.

[5] = tested on: Ba/F3 cell line stably expressing erythropoietin receptor (EpoR) and wild-type JAK2; assay: Antiproliferative activity, CellTiter-Glo viability assay at 48h, Ba/F3 EpoR wild-type JAK2; assay type: cell-based, murine; settings: EpoR Jak2 wild type Ba/F3 cells; FIG. 6
Protocol: (§1) To assess anti-proliferative effects of inhibitors, cells were seeded at 10′000/200 ul with increasing inhibitor concentrations in triplicate. Proliferation was assessed at 48h using the CellTiter-Glo viability assay (Promega) and normalized to cell growth in medium with equivalent volume of DMSO.

[6] = tested on: MPLW515L mice; assay: MPLW515L mutant MPN mouse model; assay type: in vivo; settings: oral gavage, FIG. 2D
[7] = tested on: Ba/F3 cell line stably expressing erythropoietin receptor (EpoR) and Jak2V617F; assay: Antiproliferative activity, CellTiter-Glo viability assay at 48h, Ba/F3 EpoR Jak2V617F; assay type: cell-based, murine; settings: EpoR Jak2V617F mutant Ba/F3 cells; FIG. 6
Protocol: as §1

Row | SMILES | activation of ERK downstream targets RSK3 and DUSP6 [1] | growth of colonies derived from CD34+ PBMCs [2] | reduction of hematocrit [3] | polyglobulia or polycythemia (hematocrit levels) ([3]; oral gavage, FIG. 2B) | splenomegaly (spleen weight) ([3]; oral gavage, FIG. 2C) | polycythemia [4] | tolerability [4] | body weight change [4] | bone marrow cellularity / bone marrow toxicity [4] | WBC count [4] | platelet count [4] | elevated hematocrit [4] | splenomegaly [4] | suppression of proliferation (decrease in IC50 value) [5] | correction of leukocytosis (WBC count) [6] | suppression of proliferation (decrease in IC50 value) [7] | elevated hematocrit ([4]; listed as Ruxolitinib) | splenomegaly ([4]; listed as Ruxolitinib)
1 | CNC[C@@H](NC(=O)c1ccc(-c2nc([C@H]3CC[C@H](O)[C@@H](F)C3)cnc2N)cc1F)c1cc(F)cc(Br)c1 [Compound A, 4-(3-amino-6-((1S,3S,4S)-3-fluoro-4-hydroxycyclohexyl)pyrazin-2-yl)-N-((S)-1-(3-bromo-5-fluorophenyl)-2-(methylamino)ethyl)-2-fluorobenzamide] | inhibited activation | comparably suppressed growth | comparable reduction | potently corrected | potently corrected | significantly normalizes | well tolerated | lack of body weight loss | absence of bone marrow toxicity | normal | normal; also recorded: absence of thrombocytopenia | significantly normalized; also recorded: significantly reduced; also recorded: reduces | significantly normalizes; also recorded: significantly reduced | ruxolitinib was superior to that of Compound A | ruxolitinib was superior to that of Compound A | ruxolitinib was superior to that of Compound A | – | –
2 | N#CC[C@H](C1CCCC1)n1cc(-c2ncnc3[nH]ccc23)cn1 [ruxolitinib, (R)-3-(4-(7H-pyrrolo[2,3-d]pyrimidin-4-yl)-1H-pyrazol-1-yl)-3-cyclopentylpropanenitrile, reference compound] | – | comparably suppressed growth | comparable reduction | – | – | significantly normalized | well tolerated | lack of body weight loss | absence of bone marrow toxicity | normal | normal; also recorded: absence of thrombocytopenia | significantly normalized | significantly normalized | – | superior to that of Compound A | – | significantly reduced | significantly reduced
